# Measurements from the supplement of paper PMC10307832.
# Key:
# Experiment in all cases: relative viability (nuclei count vs DMSO), 5 days (fraction); higher = more cells survive
# NPK76-II-72-1 = compound: CC1CC(=O)N(C2=CN=C(N=C2N1C3CCCC3)NC4=C(C=C(C=C4)C(=O)NC5CCN(CC5)C)OC)C [NPK76-II-72-1]
# Procedure, shortened: (§1)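 Viability is treated-well nuclei as a fraction of vehicle-well nuclei, reported as the median across plates. Before counting, lung cancer cell lines were kept overnight at 37 °C in 1536-well plates, pinned with five √10-spaced library-drug doses on vehicle-anchored plates, and left 5 days without medium change, then fixed, permeabilised and Hoechst-stained in one step, imaged at 4× and counted by MetaXpress. A plate passed only if control CV was below 25% and at least one doubling occurred.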
# BI-2536 = compound: CC[C@@H]1C(=O)N(C)c2cnc(Nc3ccc(C(=O)NC4CCN(C)CC4)cc3OC)nc2N1C1CCCC1 [BI-2536]
# Procedure, shortened: as §1
# [1] = compound: CC1CC(=O)N(C2=CN=C(N=C2N1C3CCCC3)NC4=C(C=C(C=C4)C(=O)NC5CCN(CC5)C)OC)C [NPK76-II-72-1] + CC(=O)Nc1cccc(-n2c(=O)n(C3CC3)c(=O)c3c(Nc4ccc(I)cc4F)n(C)c(=O)c(C)c32)c1 [Trametinib] (partner 0.02 µM)
# Procedure, shortened: (§2)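 Relative viability equals treated-well nuclei counts divided by vehicle-well nuclei counts. Counts came from 4× images of lung cancer cell lines grown in 1536-well plates for 5 days after pin-tool dosing on the day after seeding. Dosing used one drug alone or a fixed anchor-drug dose plus five library-drug doses (not always all listed) in √10 steps, and values are medians of duplicate plates.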
# BI-2536 + Navitoclax = compound: CC[C@@H]1C(=O)N(C)c2cnc(Nc3ccc(C(=O)NC4CCN(C)CC4)cc3OC)nc2N1C1CCCC1 [BI-2536] + CC1(C)CCC(c2ccc(Cl)cc2)=C(CN2CCN(c3ccc(C(=O)NS(=O)(=O)c4ccc(N[C@H](CCN5CCOCC5)CSc5ccccc5)c(S(=O)(=O)C(F)(F)F)c4)cc3)CC2)C1 [Navitoclax] (partner 0.5 µM)
# Procedure, shortened: as §2
Cell Line,relative viability (NPK76-II-72-1; 0.01 µM),relative viability (NPK76-II-72-1; 0.03162 µM),relative viability (NPK76-II-72-1; 0.1 µM),relative viability (NPK76-II-72-1; 0.3162 µM),relative viability (NPK76-II-72-1; 1 µM),relative viability (BI-2536; 0.01 µM),relative viability (BI-2536; 0.03162 µM),relative viability (BI-2536; 0.1 µM),relative viability (BI-2536; 0.3162 µM),relative viability (BI-2536; 1 µM),relative viability ([1]; first compound 0.01 µM),relative viability ([1]; first compound 0.03162 µM),relative viability ([1]; first compound 0.1 µM),relative viability ([1]; first compound 0.3162 µM),relative viability ([1]; first compound 1 µM),relative viability (BI-2536 + Navitoclax; first compound 0.01 µM),relative viability (BI-2536 + Navitoclax; first compound 0.03162 µM),relative viability (BI-2536 + Navitoclax; first compound 0.1 µM),relative viability (BI-2536 + Navitoclax; first compound 0.3162 µM),relative viability (BI-2536 + Navitoclax; first compound 1 µM)
NCI-H2126,0.966,1.06,0.999,0.996,1.09,1.02,0.991,0.656,0.314,0.245,0.541,0.567,0.563,0.537,0.598,0.847,0.843,0.75,0.328,0.25
NCI-H3122,0.97,1.01,0.988,1,1,0.992,0.942,0.243,0.173,0.145,0.186,0.216,0.242,0.261,0.236,1,0.991,0.525,0.233,0.241
NCI-H1975,0.963,0.942,0.954,0.931,1.02,0.859,0.975,0.612,0.207,0.159,0.348,0.329,0.303,0.323,0.401,1.12,1.08,0.932,0.182,0.17
NCI-H1944,0.931,0.974,0.92,0.921,1.08,0.902,1.07,0.649,0.203,0.194,0.372,0.413,0.423,0.351,0.408,1.05,1.05,1.05,0.377,0.157
LU99A,0.882,0.946,0.945,0.875,1.02,0.939,0.815,0.449,0.245,0.214,0.591,0.542,0.596,0.536,0.602,0.811,0.86,0.323,0.108,0.132
SW 1573,0.902,1,0.988,0.956,0.969,1.05,0.921,0.487,0.131,0.134,0.471,0.511,0.633,0.483,0.658,1.04,1.05,1.05,0.0673,0.0547
NCI-H2347,0.924,1.05,0.948,0.982,1.05,0.942,1.07,0.941,0.483,0.43,0.353,0.283,0.296,0.302,0.26,0.759,0.742,0.744,0.358,0.326
NCI-H2009,0.98,1.05,1,0.933,1.1,0.959,0.918,0.579,0.198,0.209,0.292,0.245,0.286,0.335,0.265,1.14,1.05,0.7,0.121,0.0887
HCC-15,0.939,1.1,0.988,0.93,1.01,1.04,0.925,0.466,0.15,0.146,0.35,0.329,0.342,0.357,0.393,0.709,0.693,0.497,0.202,0.101
HCC-44,1,1.04,0.96,0.969,1.07,1.01,0.996,0.31,0.155,0.129,1.06,1.27,0.95,0.992,0.988,0.956,1.02,0.849,0.0892,0.095
COR-L23,0.977,1.06,0.998,1.01,1.01,1.09,1.13,0.333,0.136,0.135,0.588,0.679,0.671,0.497,0.65,0.883,0.792,0.358,0.0817,0.0706
HCC-78,0.881,0.903,0.931,0.976,1,0.972,1.04,0.831,0.579,0.247,0.711,0.704,0.575,0.828,0.742,0.772,0.708,0.635,0.344,0.144
NCI-H727,0.882,1.03,0.836,1.02,0.976,1.02,0.998,0.764,0.512,0.31,0.352,0.392,0.341,0.394,0.395,0.356,0.552,0.255,0.138,0.176
NCI-H2087,0.98,1.03,0.868,0.889,1.05,1.11,1.06,0.607,0.105,0.133,0.219,0.203,0.201,0.179,0.244,0.868,0.974,0.8,0.112,0.138
BEN,0.941,0.928,0.903,0.904,0.996,0.948,0.982,0.671,0.386,0.355,1.15,0.945,1.13,0.854,1.08,0.0623,0.0739,0.0643,0.0627,0.0546
EKVX,0.946,0.938,0.953,0.713,1.21,0.966,1.05,0.958,0.254,0.165,0.359,0.32,0.367,–,0.384,0.786,0.874,1.02,0.15,0.114

Cell Line,relative viability (NPK76-II-72-1; 0.01 µM),relative viability (NPK76-II-72-1; 0.03162 µM),relative viability (NPK76-II-72-1; 0.1 µM),relative viability (NPK76-II-72-1; 0.3162 µM),relative viability (NPK76-II-72-1; 1 µM),relative viability (BI-2536; 0.01 µM),relative viability (BI-2536; 0.03162 µM),relative viability (BI-2536; 0.1 µM),relative viability (BI-2536; 0.3162 µM),relative viability (BI-2536; 1 µM),relative viability ([1]; first compound 0.01 µM),relative viability ([1]; first compound 0.03162 µM),relative viability ([1]; first compound 0.1 µM),relative viability ([1]; first compound 0.3162 µM),relative viability ([1]; first compound 1 µM),relative viability (BI-2536 + Navitoclax; first compound 0.01 µM),relative viability (BI-2536 + Navitoclax; first compound 0.03162 µM),relative viability (BI-2536 + Navitoclax; first compound 0.1 µM),relative viability (BI-2536 + Navitoclax; first compound 0.3162 µM),relative viability (BI-2536 + Navitoclax; first compound 1 µM)
LXF-289,0.954,1.02,0.968,1.04,0.988,1.04,0.977,0.651,0.0735,0.0855,0.71,0.691,0.644,0.703,0.68,0.949,0.858,0.658,0.064,0.0512
NCI-H1650,0.86,0.993,0.929,0.891,0.996,0.889,0.801,0.219,0.14,0.143,0.523,0.591,0.59,0.491,0.585,1.12,1.1,0.62,0.145,0.149
NCI-H2085,0.921,1.02,0.961,0.952,1,1.01,0.976,0.798,0.222,0.333,0.505,0.522,0.532,0.528,0.541,1.04,1.13,0.704,0.208,0.272
NCI-H1793,0.76,1.06,1.15,0.741,0.915,0.912,0.816,0.314,0.161,0.196,–,0.389,0.408,0.511,0.401,0.438,0.34,0.275,0.218,0.159
LC-2-ad,1.01,0.996,0.952,1,0.978,0.954,0.703,0.222,0.211,0.215,0.826,0.934,0.983,0.92,0.945,0.412,0.405,0.113,0.108,0.103
COR-L 105,0.976,0.932,0.977,0.878,0.965,0.904,0.909,0.665,0.252,0.343,0.43,0.456,0.491,0.424,0.435,0.671,0.757,0.491,0.311,0.271
NCI-H1355,0.933,0.976,0.987,0.92,1.02,1.01,0.958,0.638,0.174,0.163,0.468,0.452,0.421,0.395,0.44,0.885,1.08,0.91,0.159,0.186
H3255,0.918,0.938,0.995,0.72,1.1,0.86,0.872,0.573,0.257,0.29,0.675,0.603,0.637,–,0.587,0.292,0.359,0.196,0.113,0.119
NCI-H1993,0.827,0.981,0.942,0.89,1.09,1.04,0.793,0.543,0.684,0.587,0.551,0.549,0.624,0.57,0.482,0.984,0.926,0.492,0.553,0.549
NCI-H1734,0.926,1.03,1,0.967,1.1,1.01,0.725,0.234,0.199,0.211,0.621,0.645,0.587,0.638,0.643,0.746,0.629,0.636,0.102,0.113
HOP-62,0.935,1.02,0.937,0.875,1.05,1,1.07,0.775,0.194,0.155,0.384,0.415,0.337,0.428,0.37,1,1.08,0.967,0.0716,0.0536
LOU-NH91,0.952,0.991,0.876,0.793,1.09,1.03,0.924,0.824,0.319,0.271,0.76,0.751,0.777,0.739,0.829,0.673,0.53,0.648,0.316,0.261
ChaGo-K-1,0.985,0.951,1.04,0.941,0.921,0.911,0.965,0.674,0.239,0.197,0.876,0.98,0.868,0.897,0.875,0.939,0.691,0.461,0.311,0.346
NCI-H2228,0.945,0.974,1.08,0.883,1.06,0.972,0.991,0.279,0.142,0.228,0.348,0.63,0.538,0.285,0.571,1.03,0.999,0.933,0.0826,0.121
PC-14,0.94,1.05,0.992,0.997,1.04,0.998,0.926,0.681,0.0519,0.0481,0.741,0.848,0.698,0.678,0.798,1.05,1.06,0.902,0.0528,0.0559
